Laboratory results from ChEMBL document CHEMBL3046380, “In Vitro and In Vivo Characterization of Alpha-1A Selective Agonists and Their Utility for Stress Incontience” (Med Chem Res, 2004).
Calls of active or inactive are those of the source. The rule behind the calls is not given here.

Tests used:
[1] = biological target: T1, Alpha-1D adrenergic receptor (Rattus norvegicus, UniProt P23944); test: Binding affinity to Rattus norvegicus (rat) alpha1D adrenoreceptor by radioligand displacement assay
T1 sequence (P23944 whole entry): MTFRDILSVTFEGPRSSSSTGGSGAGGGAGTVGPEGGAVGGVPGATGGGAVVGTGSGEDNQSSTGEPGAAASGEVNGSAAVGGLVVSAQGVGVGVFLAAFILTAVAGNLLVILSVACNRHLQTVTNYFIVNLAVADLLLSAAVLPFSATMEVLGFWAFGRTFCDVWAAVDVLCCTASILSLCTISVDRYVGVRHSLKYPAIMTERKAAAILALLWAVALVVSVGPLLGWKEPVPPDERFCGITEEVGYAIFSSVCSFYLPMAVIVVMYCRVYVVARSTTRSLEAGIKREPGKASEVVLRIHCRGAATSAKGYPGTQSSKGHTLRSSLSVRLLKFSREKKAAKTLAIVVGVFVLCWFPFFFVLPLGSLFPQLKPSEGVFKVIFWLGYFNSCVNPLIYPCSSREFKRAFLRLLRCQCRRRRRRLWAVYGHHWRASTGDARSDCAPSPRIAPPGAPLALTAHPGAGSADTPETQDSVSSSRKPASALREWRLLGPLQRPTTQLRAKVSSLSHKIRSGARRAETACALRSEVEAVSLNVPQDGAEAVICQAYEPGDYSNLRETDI

[2] = biological target: T2, Alpha-1A adrenergic receptor (Rattus norvegicus, UniProt P43140); test: Binding affinity to alpha1A adrenoreceptor in Rattus norvegicus (rat) submaxillary gland by radioligand displacement assay
T2 sequence (P43140 whole entry): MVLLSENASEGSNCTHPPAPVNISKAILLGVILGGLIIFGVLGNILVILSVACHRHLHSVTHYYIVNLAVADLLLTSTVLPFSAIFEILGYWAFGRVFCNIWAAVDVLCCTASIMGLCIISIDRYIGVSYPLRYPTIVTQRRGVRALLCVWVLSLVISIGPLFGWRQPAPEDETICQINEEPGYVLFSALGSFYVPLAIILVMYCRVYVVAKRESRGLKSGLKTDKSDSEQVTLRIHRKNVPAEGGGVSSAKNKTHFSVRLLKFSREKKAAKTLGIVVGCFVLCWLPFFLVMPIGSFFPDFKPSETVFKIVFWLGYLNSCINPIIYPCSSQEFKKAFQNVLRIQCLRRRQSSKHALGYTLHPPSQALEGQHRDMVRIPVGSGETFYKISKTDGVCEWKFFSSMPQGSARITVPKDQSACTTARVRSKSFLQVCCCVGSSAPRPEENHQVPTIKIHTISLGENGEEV

[3] = biological target: T3, Alpha-1B adrenergic receptor (Mesocricetus auratus, UniProt P18841); test: Binding affinity to Cricetinae (hamster) alpha1B adrenoreceptor by radioligand displacement assay
T3 sequence (P18841 whole entry): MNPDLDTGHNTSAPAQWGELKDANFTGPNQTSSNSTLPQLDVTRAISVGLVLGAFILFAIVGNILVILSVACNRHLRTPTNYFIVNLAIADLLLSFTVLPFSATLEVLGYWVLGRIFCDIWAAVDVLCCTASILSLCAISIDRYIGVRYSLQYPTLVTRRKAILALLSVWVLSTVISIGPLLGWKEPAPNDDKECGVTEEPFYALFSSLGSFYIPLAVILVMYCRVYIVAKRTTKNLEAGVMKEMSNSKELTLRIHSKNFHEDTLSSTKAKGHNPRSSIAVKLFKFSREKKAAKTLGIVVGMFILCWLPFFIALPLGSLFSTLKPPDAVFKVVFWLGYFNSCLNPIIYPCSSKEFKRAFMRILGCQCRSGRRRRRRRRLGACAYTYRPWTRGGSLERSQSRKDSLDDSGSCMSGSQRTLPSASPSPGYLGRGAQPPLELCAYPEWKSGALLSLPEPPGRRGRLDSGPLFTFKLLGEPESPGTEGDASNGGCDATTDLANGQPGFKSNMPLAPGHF

[4] = biological target: T4, Alpha-1A adrenergic receptor (Oryctolagus cuniculus, UniProt O02824); test: (§1) Agonist activity at alpha1A adrenoreceptor in Oryctolagus cuniculus (rabbit) urethra
T4 sequence (O02824 whole entry): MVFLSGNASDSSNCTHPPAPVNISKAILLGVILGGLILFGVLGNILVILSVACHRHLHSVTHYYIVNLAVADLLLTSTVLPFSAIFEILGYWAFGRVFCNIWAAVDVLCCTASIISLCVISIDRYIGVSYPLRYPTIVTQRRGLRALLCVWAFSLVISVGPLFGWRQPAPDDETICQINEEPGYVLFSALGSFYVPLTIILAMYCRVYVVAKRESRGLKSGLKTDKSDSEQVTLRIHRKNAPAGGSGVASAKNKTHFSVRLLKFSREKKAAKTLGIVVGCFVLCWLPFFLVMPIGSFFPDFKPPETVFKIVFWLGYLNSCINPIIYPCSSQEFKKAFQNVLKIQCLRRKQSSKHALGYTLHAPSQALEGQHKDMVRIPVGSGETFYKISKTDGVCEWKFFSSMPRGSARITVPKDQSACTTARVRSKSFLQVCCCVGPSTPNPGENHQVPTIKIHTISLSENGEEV

Canis familiaris [5] = test: Selectivity index, ratio of ED20 for change in mean arterial pressure to ED5 for effect on intraurethral pressure in iv dosed Canis lupus familiaris (dog); parameters: species or system Artery
[6] = biological target: T1, Alpha-1D adrenergic receptor; test: Agonist activity at alpha1D adrenoreceptor in Rattus norvegicus (rat) aorta
[7] = biological target: T5, Alpha-1B adrenergic receptor (Rattus norvegicus) (UniProt P15823); test: (§2) Agonist activity at alpha1B adrenoreceptor in Rattus norvegicus (rat) spleen
T5 sequence (whole entry): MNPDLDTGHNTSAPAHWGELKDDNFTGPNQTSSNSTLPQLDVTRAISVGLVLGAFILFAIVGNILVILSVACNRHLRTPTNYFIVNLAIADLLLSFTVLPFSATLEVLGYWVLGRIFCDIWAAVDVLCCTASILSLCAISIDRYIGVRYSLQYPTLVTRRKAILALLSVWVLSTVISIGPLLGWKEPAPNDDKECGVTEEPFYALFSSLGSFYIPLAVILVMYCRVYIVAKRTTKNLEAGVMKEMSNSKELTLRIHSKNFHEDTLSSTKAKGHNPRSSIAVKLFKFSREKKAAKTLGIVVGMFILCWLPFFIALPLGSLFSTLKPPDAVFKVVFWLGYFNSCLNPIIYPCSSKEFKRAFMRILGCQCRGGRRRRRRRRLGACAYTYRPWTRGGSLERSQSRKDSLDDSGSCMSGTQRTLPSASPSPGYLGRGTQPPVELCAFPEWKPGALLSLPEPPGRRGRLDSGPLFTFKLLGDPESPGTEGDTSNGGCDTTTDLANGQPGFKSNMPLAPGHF

[8] = biological target: T6, Alpha-1A adrenergic receptor (Oryctolagus cuniculus) (UniProt O02824); test: as §1
T6 sequence (whole entry): T4 sequence (O02824 whole entry)

[9] = biological target: T1, Alpha-1D adrenergic receptor; test: Antagonist activity at alpha1D adrenoreceptor in Rattus norvegicus (rat) aorta assessed as inhibition of phenylephrine-indued contraction; conditions: read-out: pA2 (converted)
[10] = biological target: T7, Alpha-1B adrenergic receptor (Rattus norvegicus, UniProt P15823); test: as §2
T7 sequence (P15823 whole entry): T5 sequence (whole entry)

[11] = biological target: T7, Alpha-1B adrenergic receptor; test: Antagonist activity at alpha1B adrenoreceptor in Rattus norvegicus (rat) spleen assessed as inhibition of phenylephrine-indued contraction; conditions: read-out: pA2 (converted)
[12] = biological target: T5, Alpha-1B adrenergic receptor (Rattus norvegicus); test: Agonist activity at alpha1B adrenoreceptor in Rattus norvegicus (rat) spleen relative to phenylephrine
[13] = biological target: T6, Alpha-1A adrenergic receptor (Oryctolagus cuniculus); test: Agonist activity at alpha1A adrenoreceptor in Oryctolagus cuniculus (rabbit) urethra relative to phenylephrine
Canis familiaris [14] = test: Pressor activity in Canis lupus familiaris (dog) assessed as increase in mean arterial blood pressure at 100 nmol/kg, iv in presence of idazoxan; format: ADME, organism-based; conditions: in vivo
Canis familiaris [15] = test: Pressor activity in Canis lupus familiaris (dog) assessed as increase in mean arterial blood pressure at 100 nmol/kg, iv in presence of prazosin; format: ADME, organism-based; conditions: in vivo
Canis familiaris [16] = test: Pressor activity in Canis lupus familiaris (dog) assessed as increase in mean arterial blood pressure at 100 nmol/kg, iv; format: ADME, organism-based; conditions: in vivo
[17] = biological target: T8, Alpha-1D adrenergic receptor (Rattus norvegicus) (UniProt P23944); test: Agonist activity at alpha1D adrenoreceptor in Rattus norvegicus (rat) aorta relative to phenylephrine
T8 sequence (whole entry): T1 sequence (P23944 whole entry)

SMILES | Ki [1] [µM] | Ki [2] [nM] | Ki [3] [µM] | pEC50 [7] | also measured
CN(c1c(O)ccc2c1CCCC2C1=NCCN1)S(C)(=O)=O (stereo unspecified) | 18.2 | 5500 | 15.8 | – | –
COc1ccc(OC)c(C(O)CN)c1 (stereo unspecified) [DESGLYMIDODRINE] | – | – | – | – | EC50 [4]: 7.08 µM; Selectivity Index (Canis familiaris [5]): 1.3; EC50 [6]: 1.86 µM
CCS(=O)(=O)Nc1cccc2c1CCCC2c1c[nH]c(C)n1 (stereo unspecified) | > 10 | – | > 10 | inactive | pEC50 [8]: inactive
O=S(=O)(Nc1c(O)ccc2c1CCCC2C1=NCCN1)C(F)(F)F (stereo unspecified) | > 3.16 | > 3160 | > 3.16 | – | –
CCS(=O)(=O)Nc1c(O)ccc2c1CCCC2C1=NCCN1 (stereo unspecified) | 2.19 | 60.3 | 4.27 | – | –
O=S(=O)(Nc1c(O)ccc2c1CCCC2C1=NCCN1)c1ccccc1 (stereo unspecified) | > 3.16 | > 3160 | > 3.16 | – | –
COc1ccc2c(c1NS(C)(=O)=O)CCCC2C1=NCCN1 (stereo unspecified) | 1.55 | 617 | 3.47 | – | –
CCS(=O)(=O)Nc1cccc2c1CCC[C@H]2c1c[nH]cn1 | 1.07 | 46.8 | 1.32 | – | Kb [9]: 7.24 µM; EC50 [10]: 3.8 µM; EC50 [4]: 0.17 µM; Kb [11]: 13.8 µM; Selectivity Index (Canis familiaris [5]): 3.3; Efficacy [12]: 11%; Efficacy [13]: 71%
CCCS(=O)(=O)Nc1cccc2c1CCCC2c1c[nH]cn1 (stereo unspecified) | > 10 | – | > 10 | inactive | pEC50 [8]: inactive
CCS(=O)(=O)Nc1cccc2c1CCCC2c1c[nH]cn1 (stereo unspecified) | – | – | – | inactive | –
Nc1cccc2c1CCCC2c1c[nH]cn1 (stereo unspecified) | – | 126 | – | – | EC50 [10]: 0.977 µM; EC50 [4]: 0.275 µM
CCS(=O)(=O)Nc1cccc(Cc2c[nH]cn2)c1 | – | – | – | – | Activity (Canis familiaris [14]): Toxic; Activity (Canis familiaris [15]): Non-toxic; Kb [9]: 0.661 µM; Activity (Canis familiaris [16]): Toxic; Kb [11]: 4.07 µM; Efficacy [12]: 11%
CCS(=O)(=O)Nc1cccc(Cc2c[nH]cn2)c1C | – | – | – | – | Kb [9]: 5.89 µM; Kb [11]: 15.1 µM
O=S(=O)(CC(F)(F)F)Nc1cccc2c1CCCC2c1c[nH]cn1 (stereo unspecified) | > 10 | – | > 10 | inactive | Kb [9]: 27.5 µM; Kb [11]: 42.7 µM; Efficacy [13]: 64%
CC(N)C(O)c1ccccc1 (stereo unspecified) [PHENYLPROPANOLAMINE] | – | – | – | – | EC50 [10]: 282 µM; EC50 [4]: 234 µM; Selectivity Index (Canis familiaris [5]): 0.4; EC50 [6]: 75.9 µM
Cn1cncc1C1CCCc2c(NS(C)(=O)=O)cccc21 (stereo unspecified) | > 10 | > 10000 | > 10 | inactive | pEC50 [8]: inactive
CS(=O)(=O)Nc1cccc2c1CCCCC2c1c[nH]cn1 (stereo unspecified) | – | – | – | inactive | –
O=S(=O)(Nc1cccc2c1CCCC2c1c[nH]cn1)C1CC1 (stereo unspecified) | – | – | > 10 | inactive | EC50 [4]: 5.62 µM
CS(=O)(=O)Nc1c(O)ccc2c1CCCC2C1=NCCN1 (stereo unspecified) | – | – | – | – | Efficacy [17]: 99%; Efficacy [13]: 88%
NC(=O)Nc1c(O)ccc2c1CCCC2C1=NCCN1 (stereo unspecified) | 5.5 | 7080 | 10 | – | –
COC(=O)Nc1cccc2c1CCCC2c1c[nH]cn1 (stereo unspecified) | – | – | – | inactive | pEC50 [8]: inactive
COC(=O)Nc1c(O)ccc2c1CCCC2C1=NCCN1 (stereo unspecified) | 8.51 | 288 | 10 | – | –
Cn1cnc(C2CCCc3c(NS(C)(=O)=O)cccc32)c1 (stereo unspecified) | 3.63 | – | 1.05 | – | –
CC(C)S(=O)(=O)Nc1cccc2c1CCCC2c1c[nH]cn1 (stereo unspecified) | – | – | > 10 | – | EC50 [10]: 14.1 µM; EC50 [4]: 6.76 µM; Efficacy [12]: 8%
CCCS(=O)(=O)Nc1c(O)ccc2c1CCCC2C1=NCCN1 (stereo unspecified) | 1.86 | 776 | 3.09 | – | –
